The results in this text go back to US20080255060A1, “Ester Linked Macrolides Useful For The Treatment of Microbial Infections” (priority 2004, published 2008).

SMILES strings stand for the structures. Bounds are passed on as bounds.

What all share (assay): MIC, standard microtiter broth serial dilution test
Holding throughout (format): cell-based

Test [1] has as its system S. aureus Smith ATCC 0329. As to conditions: Staphylococcus aureus, ATCC0329.
Another test relates to S. pyogenes 0542. The following applies: Streptococcus pyogenes.
In a further test the test system is S. pneumoniae 0541. As to conditions: Streptococcus pneumoniae.
A further test deals with H. influenzae ATCC 0529. As to conditions: Haemophilus influenzae, ATCC0529.
A further test relates to M. catarrhalis ATCC 0324. As to conditions: Moraxella catarrhalis, ATCC0324.
Test [2] has as its system erythromycin resistant strains of Streptococcus pyogenes.
Test [3] relates to erythromycin resistant strains of Streptococcus pneumoniae.
Another test relates to E. faecalis ATCC 0004. The following applies: Enterococcus faecalis, ATCC0004.

`CC[C@H]1OC(=O)[C@H](C)[C@@H](O[C@H]2C[C@@](C)(OC)[C@@H](OC(=O)CCOCCOCCCc3ccc4c(c3)c(=O)c(C(=O)O)cn4CC)[C@H](C)O2)[C@H](C)[C@@H](OC2O[C@H](C)C[C@H](N(C)C)[C@H]2O)[C@](C)(O)C[C@@H](C)CN(C)[C@H](C)[C@@H](O)[C@]1(C)O` (stereo partly drawn) [Example 49, 4″-O-(3-{2-[3-(3-carboxy-1-ethyl-4-oxo-1,4-dihydro-quinolin-6-yl)-propoxy]-ethoxy}-propionyl)-azithromycin]: the MIC is not above 1 µg/mL in test [1]; not above 1 µg/mL in the test with S. pyogenes 0542; not above 1 µg/mL in the test with S. pneumoniae 0541; not above 2 µg/mL with H. influenzae ATCC 0529; not above 2 µg/mL against M. catarrhalis ATCC 0324; not above 0.25 µg/mL in test [2]. In addition, the MIC in test [3] is not above 0.25 µg/mL; in the test with E. faecalis ATCC 0004 it was not above 1 µg/mL.
As for `CC[C@H]1OC(=O)[C@H](C)[C@@H](O[C@H]2C[C@@](C)(OC)[C@@H](OC(=O)CCOCCOCCOc3cc4c(=O)c(C(=O)O)cn(C5CC5)c4cc3Cl)[C@H](C)O2)[C@H](C)[C@@H](O[C@@H]2O[C@H](C)C[C@H](N(C)C)[C@H]2O)[C@](C)(O)C[C@@H](C)CN(C)[C@H](C)[C@@H](O)[C@]1(C)O` [Example 55, 4″-O-(3-{2-[2-(3-Carboxy-7-chloro-1-cyclopropyl-4-oxo-1,4-dihydro-quinolin-6-yloxy)-ethoxy]-ethoxy}-propionyl)-azithromycin], the MIC in test [1] is not above 1 µg/mL; against S. pyogenes 0542, not above 1 µg/mL; in the test with S. pneumoniae 0541 it was not above 1 µg/mL; with H. influenzae ATCC 0529, not above 2 µg/mL; against M. catarrhalis ATCC 0324, not above 2 µg/mL; in test [2] it was not above 0.25 µg/mL. The values for the MIC (in test [3]; against E. faecalis ATCC 0004) were not above 0.25 µg/mL and not above 1 µg/mL, respectively.
Take `CC[C@H]1OC(=O)[C@H](C)[C@@H](O[C@H]2C[C@@](C)(OC)[C@@H](OC(=O)CCNCCOCCOCCNc3cc4c(=O)c(C(=O)O)cn(C5CC5)c4cc3Cl)[C@H](C)O2)[C@H](C)[C@@H](O[C@@H]2O[C@H](C)C[C@H](N(C)C)[C@H]2O)[C@](C)(O)C[C@@H](C)CN(C)[C@H](C)[C@@H](O)[C@]1(C)O` [Example 65, 4″-O-[3-(2-{2-[2-(3-Carboxy-7-chloro-1-cyclopropyl-4-oxo-1,4-dihydro-quinolin-6-ylamino)-ethoxy]-ethoxy}-ethylamino)-propionyl]-azithromycin]: the MIC was not above 1 µg/mL in test [1]; not above 1 µg/mL in the test on S. pyogenes 0542; not above 1 µg/mL against S. pneumoniae 0541; not above 2 µg/mL against H. influenzae ATCC 0529; not above 2 µg/mL in the test on M. catarrhalis ATCC 0324; not above 0.25 µg/mL in test [2]. In addition, the MIC in test [3] was not above 0.25 µg/mL; against E. faecalis ATCC 0004, not above 1 µg/mL.
